# Patent US20030171218A1, “Substituted 3-heteroaryl(amino- or oxy)pyrrolidin-2-ones, their preparation and use as herbicides or plant growth regulators” (priority 2001, published 2003)
# Columns and labels:
# [1] = test system: weed plants such as Digitaria sanguinalis, Echinochloa crus-galli, Setaria faberi, Setaria viridis, Sorghum halepense, Abutilon theophrasti, Amaranthum …; assay: Pre-emergence effect on weeds (greenhouse pot test); format: in vivo, monocotyledonous and dicotyledonous weed plants; conditions: application rate of 1 kg or less of active substance per hectare; scored visually after 3 to 4 weeks by comparison with untreated controls
# Source text: Seeds or rhizome pieces of monocotyledonous and dicotyledonous weed plants are placed in sandy loam soil in plastic pots and covered with soil. The compounds according to the invention which are formulated in the form of wettable powders or emulsion concentrates are then applied to the surface of the soil cover in the form of aqueous suspensions or emulsions at an application rate of 600 to 800 l of water/ha (converted), in various dosages.
# After the treatment, the pots are placed in a greenhouse and kept under good growth conditions for the weeds. After the test plants have emerged, the damage to the plants or the negative effect on the emergence is scored visually after a test period of 3 to 4 weeks by comparison with untreated controls. As shown by the test results, compounds according to the invention have good herbicidal pre-emergence activity against a broad spectrum of weed grasses and broad-leafed weeds.
# [2] = test system: harmful plants such as Digitaria sanguinalis, Echinochloa crus-galli, Setaria faberi, Setaria viridis, Sorghum halepense, Abutilon theophrasti, Amaranthum …; assay: Post-emergence effect on weeds (greenhouse pot test); format: in vivo, monocotyledonous and dicotyledonous weeds; conditions: application rate of 1 kg and less of active substance per hectare; treated at three-leaf stage; scored visually after about 3 to 4 weeks by comparison with untreated controls
# Experimental: Seeds or rhizome pieces of monocotyledonous and dicotyledonous weeds are placed in sandy loam soil in plastic pots, covered with soil and grown in a greenhouse under good growth conditions. Three weeks after sowing, the test plants are treated at the three-leaf stage. The compounds according to the invention which were formulated as wettable powders or emulsion concentrates are sprayed, at various dosages, onto the green parts of the plants at an application rate of 600 to 800 l of water/ha (converted). After the test plants have remained in the greenhouse for about 3 to 4 weeks under optimum growth conditions, the effect of the preparations is scored visually by comparison with untreated controls. The agents according to the invention also have good herbicidal activity post-emergence against a broad spectrum of economically important weed grasses and broad-leafed weeds.
compound,measurement,setting,value
Cc1cccc(N2CCC(Nc3nc(N)nc(C(C)C)n3)C2=O)c1 (stereo not drawn) [Example A22],herbicidal activity pre-emergence,[1],very good herbicidal activity
same,herbicidal activity post-emergence,[2],very good herbicidal activity
Cc1cc(C)cc(N2CCC(Nc3nc(N)nc(C(C)C)n3)C2=O)c1 (stereo not drawn) [Example A23],herbicidal activity pre-emergence,[1],very good herbicidal activity
same,herbicidal activity post-emergence,[2],very good herbicidal activity
Cc1cc(N2CCC(Nc3nc(N)nc(C(C)C)n3)C2=O)ccc1F (stereo not drawn) [Example A24],herbicidal activity pre-emergence,[1],very good herbicidal activity
same,herbicidal activity post-emergence,[2],very good herbicidal activity
COc1cccc(N2CCC(Nc3nc(N)nc(C(C)C)n3)C2=O)c1 (stereo not drawn) [Example A25],herbicidal activity pre-emergence,[1],very good herbicidal activity
same,herbicidal activity post-emergence,[2],very good herbicidal activity
CC(C)c1nc(N)nc(NC2CCN(c3cccc(OC(F)(F)F)c3)C2=O)n1 (stereo not drawn) [Example A26],herbicidal activity pre-emergence,[1],very good herbicidal activity
same,herbicidal activity post-emergence,[2],very good herbicidal activity
CC(C)c1nc(N)nc(NC2CCN(c3cccc(Cl)c3)C2=O)n1 (stereo not drawn) [Example A27],herbicidal activity pre-emergence,[1],very good herbicidal activity
same,herbicidal activity post-emergence,[2],very good herbicidal activity
CC(C)(F)c1nc(N)nc(NC2CCN(c3cccc(F)c3)C2=O)n1 (stereo not drawn) [Example A28],herbicidal activity pre-emergence,[1],very good herbicidal activity
same,herbicidal activity post-emergence,[2],very good herbicidal activity
Cc1cc(N2CCC(Nc3nc(N)nc(C(C)(C)F)n3)C2=O)ccc1F (stereo not drawn) [Example A29],herbicidal activity pre-emergence,[1],very good herbicidal activity
same,herbicidal activity post-emergence,[2],very good herbicidal activity
COc1cccc(N2CCC(Nc3nc(N)nc(C(C)(C)F)n3)C2=O)c1 (stereo not drawn) [Example A30],herbicidal activity pre-emergence,[1],very good herbicidal activity
same,herbicidal activity post-emergence,[2],very good herbicidal activity
CC(C)(F)c1nc(N)nc(NC2CCN(c3cccc(OC(F)(F)F)c3)C2=O)n1 (stereo not drawn) [Example A31],herbicidal activity pre-emergence,[1],very good herbicidal activity
same,herbicidal activity post-emergence,[2],very good herbicidal activity
CC(C)(F)c1nc(N)nc(NC2CCN(c3cccc(C(F)(F)F)c3)C2=O)n1 (stereo not drawn) [Example A32],herbicidal activity pre-emergence,[1],very good herbicidal activity
same,herbicidal activity post-emergence,[2],very good herbicidal activity
Cc1cccc(N2CCC(Nc3nc(N)nc(C(C)(C)F)n3)C2=O)c1 (stereo not drawn) [Example A33],herbicidal activity pre-emergence,[1],very good herbicidal activity
same,herbicidal activity post-emergence,[2],very good herbicidal activity
Cc1cc(C)cc(N2CCC(Nc3nc(N)nc(C(C)(C)F)n3)C2=O)c1 (stereo not drawn) [Example A34],herbicidal activity pre-emergence,[1],very good herbicidal activity
same,herbicidal activity post-emergence,[2],very good herbicidal activity
CC(C)(F)c1nc(N)nc(NC2CCN(c3ccccc3)C2=O)n1 (stereo not drawn) [Example A35],herbicidal activity pre-emergence,[1],very good herbicidal activity
same,herbicidal activity post-emergence,[2],very good herbicidal activity
CC(C)(F)c1nc(N)nc(NC2CCN(c3cccc(Cl)c3)C2=O)n1 (stereo not drawn) [Example A36],herbicidal activity pre-emergence,[1],very good herbicidal activity
same,herbicidal activity post-emergence,[2],very good herbicidal activity
CC(F)c1nc(N)nc(OC2CCN(c3cccc(C(F)(F)F)c3)C2=O)n1 (stereo not drawn) [Example A37],herbicidal activity pre-emergence,[1],very good herbicidal activity
same,herbicidal activity post-emergence,[2],very good herbicidal activity
Cc1cccc(N2CCC(Oc3nc(N)nc(C(C)F)n3)C2=O)c1 (stereo not drawn) [Example A38],herbicidal activity pre-emergence,[1],very good herbicidal activity
same,herbicidal activity post-emergence,[2],very good herbicidal activity
Cc1cc(C)cc(N2CCC(Oc3nc(N)nc(C(C)F)n3)C2=O)c1 (stereo not drawn) [Example A39],herbicidal activity pre-emergence,[1],very good herbicidal activity
same,herbicidal activity post-emergence,[2],very good herbicidal activity
Cc1cc(N2CCC(Oc3nc(N)nc(C(C)F)n3)C2=O)ccc1F (stereo not drawn) [Example A40],herbicidal activity pre-emergence,[1],very good herbicidal activity
same,herbicidal activity post-emergence,[2],very good herbicidal activity
COc1cccc(N2CCC(Oc3nc(N)nc(C(C)F)n3)C2=O)c1 (stereo not drawn) [Example A41],herbicidal activity pre-emergence,[1],very good herbicidal activity
same,herbicidal activity post-emergence,[2],very good herbicidal activity
CC(F)c1nc(N)nc(OC2CCN(c3cccc(OC(F)(F)F)c3)C2=O)n1 (stereo not drawn) [Example A42],herbicidal activity pre-emergence,[1],very good herbicidal activity
same,herbicidal activity post-emergence,[2],very good herbicidal activity
CC(F)c1nc(N)nc(OC2CCN(c3cccc(Cl)c3)C2=O)n1 (stereo not drawn) [Example A43],herbicidal activity pre-emergence,[1],very good herbicidal activity
same,herbicidal activity post-emergence,[2],very good herbicidal activity
CC(F)c1nc(N)nc(OC2CCN(c3cccc(F)c3)C2=O)n1 (stereo not drawn) [Example A44],herbicidal activity pre-emergence,[1],very good herbicidal activity
same,herbicidal activity post-emergence,[2],very good herbicidal activity
CC(C)c1nc(N)nc(OC2CCN(c3ccccc3)C2=O)n1 (stereo not drawn) [Example A45],herbicidal activity pre-emergence,[1],very good herbicidal activity
same,herbicidal activity post-emergence,[2],very good herbicidal activity
CC(C)c1nc(N)nc(OC2CCN(c3cccc(C(F)(F)F)c3)C2=O)n1 (stereo not drawn) [Example A46],herbicidal activity pre-emergence,[1],very good herbicidal activity
same,herbicidal activity post-emergence,[2],very good herbicidal activity
Cc1cccc(N2CCC(Oc3nc(N)nc(C(C)C)n3)C2=O)c1 (stereo not drawn) [Example A47],herbicidal activity pre-emergence,[1],very good herbicidal activity
same,herbicidal activity post-emergence,[2],very good herbicidal activity
Cc1cc(C)cc(N2CCC(Oc3nc(N)nc(C(C)C)n3)C2=O)c1 (stereo not drawn) [Example A48],herbicidal activity pre-emergence,[1],very good herbicidal activity
same,herbicidal activity post-emergence,[2],very good herbicidal activity
Cc1cc(N2CCC(Oc3nc(N)nc(C(C)C)n3)C2=O)ccc1F (stereo not drawn) [Example A49],herbicidal activity pre-emergence,[1],very good herbicidal activity
same,herbicidal activity post-emergence,[2],very good herbicidal activity
COc1cccc(N2CCC(Oc3nc(N)nc(C(C)C)n3)C2=O)c1 (stereo not drawn) [Example A50],herbicidal activity pre-emergence,[1],very good herbicidal activity
same,herbicidal activity post-emergence,[2],very good herbicidal activity
CC(C)c1nc(N)nc(OC2CCN(c3cccc(OC(F)(F)F)c3)C2=O)n1 (stereo not drawn) [Example A51],herbicidal activity pre-emergence,[1],very good herbicidal activity
same,herbicidal activity post-emergence,[2],very good herbicidal activity
CC(C)c1nc(N)nc(OC2CCN(c3cccc(Cl)c3)C2=O)n1 (stereo not drawn) [Example A52],herbicidal activity pre-emergence,[1],very good herbicidal activity
same,herbicidal activity post-emergence,[2],very good herbicidal activity
CC(C)c1nc(N)nc(OC2CCN(c3cccc(F)c3)C2=O)n1 (stereo not drawn) [Example A53],herbicidal activity pre-emergence,[1],very good herbicidal activity
same,herbicidal activity post-emergence,[2],very good herbicidal activity
CC(C)(F)c1nc(N)nc(OC2CCN(c3cccc(C(F)(F)F)c3)C2=O)n1 (stereo not drawn) [Example A54],herbicidal activity pre-emergence,[1],very good herbicidal activity
same,herbicidal activity post-emergence,[2],very good herbicidal activity
Cc1cccc(N2CCC(Oc3nc(N)nc(C(C)(C)F)n3)C2=O)c1 (stereo not drawn) [Example A56],herbicidal activity pre-emergence,[1],very good herbicidal activity
same,herbicidal activity post-emergence,[2],very good herbicidal activity
Cc1cc(C)cc(N2CCC(Oc3nc(N)nc(C(C)(C)F)n3)C2=O)c1 (stereo not drawn) [Example A57],herbicidal activity pre-emergence,[1],very good herbicidal activity
same,herbicidal activity post-emergence,[2],very good herbicidal activity
Cc1cc(N2CCC(Oc3nc(N)nc(C(C)(C)F)n3)C2=O)ccc1F (stereo not drawn) [Example A58],herbicidal activity pre-emergence,[1],very good herbicidal activity
same,herbicidal activity post-emergence,[2],very good herbicidal activity
COc1cccc(N2CCC(Oc3nc(N)nc(C(C)(C)F)n3)C2=O)c1 (stereo not drawn) [Example A59],herbicidal activity pre-emergence,[1],very good herbicidal activity
same,herbicidal activity post-emergence,[2],very good herbicidal activity
CC(C)(F)c1nc(N)nc(OC2CCN(c3cccc(OC(F)(F)F)c3)C2=O)n1 (stereo not drawn) [Example A60],herbicidal activity pre-emergence,[1],very good herbicidal activity
same,herbicidal activity post-emergence,[2],very good herbicidal activity
CC(C)(F)c1nc(N)nc(OC2CCN(c3cccc(Cl)c3)C2=O)n1 (stereo not drawn) [Example A61],herbicidal activity pre-emergence,[1],very good herbicidal activity
same,herbicidal activity post-emergence,[2],very good herbicidal activity
CC(C)(F)c1nc(N)nc(OC2CCN(c3cccc(F)c3)C2=O)n1 (stereo not drawn) [Example A62],herbicidal activity pre-emergence,[1],very good herbicidal activity
same,herbicidal activity post-emergence,[2],very good herbicidal activity
CC(F)c1nc(N)nc(N(C)C2CCN(c3cccc(OC(F)(F)F)c3)C2=O)n1 (stereo not drawn) [Example A63],herbicidal activity pre-emergence,[1],very good herbicidal activity
same,herbicidal activity post-emergence,[2],very good herbicidal activity
CC(F)c1nc(N)nc(N(C)C2CCN(c3cccc(C(F)(F)F)c3)C2=O)n1 (stereo not drawn) [Example A64],herbicidal activity pre-emergence,[1],very good herbicidal activity
same,herbicidal activity post-emergence,[2],very good herbicidal activity
